Earlier results, collected in patent US6573290B1 (ILEX Oncology, Inc., priority 1999, dated 2003).
Blank lines part the entries; values can stand above or below the compound they belong to.

Assays:
[1] = tested on: Ki-ras mutations; details: AOM-treated rats; reduced from 90%
[2] = tested on: tumor putrescine; details: DFMO infusion, rat-tumor model
[3] = not given; remark: listed apart in the source
[4] = tested on: prostoglandin E2 (PGE2); details: 300 mg/day, one month phase IIa trial

Compound: NCCCC(N)(C(=O)O)C(F)F (racemic) [DFMO, 2-(difluoromethyl)-DL-ornithine]
number of tumors harboring Ki-ras mutations [1]: 36%
decrease in tumor putrescine levels [2]: 90%

time of peak plasma levels (after an oral dose): roughly 3 hours
effective half-life (fasted conditions): roughly 11 hours
dose excreted in feces (following a single dose): 57%
dose excreted in urine (following a single dose): 27%
delay of plasma levels with high fat meal (taken with a high fat meal): 1 to 2 h
increase in total absorption with high fat meal (taken with a high fat meal): 10-20%
protein binding (within the clinical dose range): highly protein bound
Compound: Cc1ccc(-c2cc(C(F)(F)F)nn2-c2ccc(S(N)(=O)=O)cc2)cc1 [celecoxib, 4-[5-(4-methyphenyl)-3-(trifluoromethyl)-1H-pyrazol-1-yl]benzenesulfonamide]

Compound: Cc1c(OCC(F)(F)F)ccnc1C[S+]([O-])c1nc2ccccc2[nH]1 (stereo not shown) [lansoprazole]
adverse effect: diarrhea ([3]; in vivo): 8%
adverse effect: headache ([3]; in vivo): 5%
adverse effect: nausea ([3]; in vivo): 3%

Compound: COc1ccc2[nH]c([S+]([O-])Cc3ncc(C)c(OC)c3C)nc2c1 (stereo not shown) [omeprazole]
adverse effect: dizziness ([3]; in vivo): 2%

Compound: CC(C)Cc1ccc(C(C)C(=O)O)cc1 (stereo not shown) [ibuprofen]
PGE2 levels in flat mucosa [4]: significant decrease

Compound: CN1C(C(=O)Nc2ccccn2)=C(O)c2ccccc2S1(=O)=O [piroxicam]
number of tumors harboring Ki-ras mutations [1]: 25%

Compound: Cc1ncc([N+](=O)[O-])n1CCO [metronidazole]
adverse effect: disulfiram-like reaction with alcohol ingestion ([3]; in vivo): 20%
adverse effect: rash ([3]; in vivo): 5%

Compound: CC[C@H]1OC(=O)[C@H](C)[C@@H](O[C@H]2C[C@@](C)(OC)[C@@H](O)[C@H](C)O2)[C@H](C)[C@@H](O[C@@H]2O[C@H](C)C[C@H](N(C)C)[C@H]2O)[C@](C)(OC)C[C@@H](C)C(=O)[C@H](C)[C@@H](O)[C@]1(C)O [clarithrymycin]
adverse effect: pseudomembranous colitis [3]: 1%
adverse effect: diarrhea ([3]; in vivo): 10%
